Reference: paper PMC8705362, “Cytochrome P450 and P-gp Mediated Herb-Drug Interactions and Molecular Docking Studies of Garcinol” (Membranes, 2021)
Like-named read-outs stand apart in the source and are kept apart here.

Legend:
CYP3A4 [1] = conditions: rats, midazolam 10 mg/kg in probe mixture on day 8, with garcinol 25 mg/kg oral for 7 days, plasma; second block of Table 3
CYP2B6 [2] = assay: In-vivo CYP inhibition study, pharmacokinetics of probe bupropion and hydroxy bupropion; conditions: plasma
CYP3A4 [3] = assay: in vivo; conditions: Sprague-Dawley, rat, plasma, po, 10 mg/kg
CYP2E1 = CYP2E1 (Rattus norvegicus, UniProt P05182); assay: CYP2E1 inhibition, probe substrate cocktail in rat liver microsomes (chlorzoxazone 6-hydroxylation)
CYP2E1, sequence (P05182 whole entry): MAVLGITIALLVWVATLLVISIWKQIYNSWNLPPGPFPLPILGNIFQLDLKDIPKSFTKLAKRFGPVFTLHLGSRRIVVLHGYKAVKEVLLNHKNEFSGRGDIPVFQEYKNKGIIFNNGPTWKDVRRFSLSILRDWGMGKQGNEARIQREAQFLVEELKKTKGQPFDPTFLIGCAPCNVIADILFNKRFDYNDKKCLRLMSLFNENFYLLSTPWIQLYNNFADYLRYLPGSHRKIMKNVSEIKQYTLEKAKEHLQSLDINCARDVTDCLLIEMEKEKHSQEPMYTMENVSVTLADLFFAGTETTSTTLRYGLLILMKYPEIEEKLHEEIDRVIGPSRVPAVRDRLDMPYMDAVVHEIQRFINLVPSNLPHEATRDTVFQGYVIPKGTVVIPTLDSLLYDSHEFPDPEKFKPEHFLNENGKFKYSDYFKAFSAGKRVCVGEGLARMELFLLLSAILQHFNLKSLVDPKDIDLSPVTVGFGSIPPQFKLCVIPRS
Protocol: (§1) Tacrine was used as CYP1A2 probe substrate instead of Phenacetin to avoid the possible interactions of Phenacetin with CYP2E1 probe substrate Chlorzoxazone. […] The above incubation mixture was pre-incubated for 5 min at 37 °C and the reaction was started by adding NADPH and terminated by the addition of 200 µL of ice-cold acetonitrile containing internal standard (IS). Then the mixture was vortex mixed and centrifuged at 4000 rpm for 10 min at 4 °C and supernatant was separated and analysed using LC-MS/MS.
(§2) IC50 values were determined by comparing each CYP isozyme activity in the presence of different concentrations of inhibitor (Garcinol) with the control incubations containing no inhibitor (Negative control). […]
(§3) The entire procedure is same as mentioned in section 2.3 except for various concentrations of the formulations
(§4) and extracts (0.41-100 µg/mL) and garcinol (0.11-30 µM) were used in the study.

CYP2D6 = CYP2D6 inhibition, probe substrate cocktail in rat liver microsomes (dextromethorphan O-demethylation); type: in vitro ADME; conditions: pH 7.4, probe dextromethorphan (O-demethylation), rat liver microsomes 0.5 mg/mL, garcinol 0.11-30 µM
Protocol: as §1, §2, §3, §4

CYP2C9 = CYP2C9 inhibition, probe substrate cocktail in rat liver microsomes (diclofenac 4-hydroxylation); type: in vitro ADME; conditions: pH 7.4, probe diclofenac (4-hydroxylation), rat liver microsomes 0.5 mg/mL, garcinol 0.11-30 µM
Protocol: as §1, §2, §3, §4

P-gp [4] = assay: Western blotting of P-gp expression in rat brain and intestine; type: in vivo, rats; conditions: garcinol 25 mg/kg intragastric once a day for 10 days, normalized to β-actin, p < 0.05
Protocol: For Western blot analysis, twelve rats were divided into two groups. […] On the 10th day, all the rats were sacrificed under CO2 euthanasia. Brain and intestine were isolated immediately and stored at −80 °C until use. 10 mg of intestinal and brain samples were lysed using ice-cold radio immunoprecipitation assay lysis buffer containing 0.02 mM phenylmethane sulfonyl fluoride for 30 min and ultrasonicated for 60 s at 20-s intervals in an ice bath. These samples were transferred to centrifugation tubes and centrifuged for 10 min at 8000 g by maintaining temperature at 4 °C. Supernatants were estimated for protein concentration using BCA protein assay kit by following the manufacturer’s instructions. Protein denaturation was performed by reconstituting the supernatant in lammelle buffer and boiled for 5 mins at 97 °C. The denatured samples were later separated on 10% SDS-polyacrylamide gel electrophoresis and then transferred onto a nitrocellulose membrane. The membrane was then blocked with 3% bovine serum albumin in Tris-buffered saline-Tween 20 (TBS-T) for 1 hr at 37 °C. These immunoblots were probed with primary monoclonal antibody P-gp (1:1000) or β-actin (1:1000) overnight at 4 °C. […] The band intensity of P-gp protein was normalized to that of β-actin detected using Azure biosystems.

CYP1A2 = target: T1, CYP1A2 (Rattus norvegicus, UniProt P04799); assay: CYP1A2 inhibition, probe substrate cocktail in rat liver microsomes (tacrine 1-hydroxylation)
T1 sequence (P04799 1-513): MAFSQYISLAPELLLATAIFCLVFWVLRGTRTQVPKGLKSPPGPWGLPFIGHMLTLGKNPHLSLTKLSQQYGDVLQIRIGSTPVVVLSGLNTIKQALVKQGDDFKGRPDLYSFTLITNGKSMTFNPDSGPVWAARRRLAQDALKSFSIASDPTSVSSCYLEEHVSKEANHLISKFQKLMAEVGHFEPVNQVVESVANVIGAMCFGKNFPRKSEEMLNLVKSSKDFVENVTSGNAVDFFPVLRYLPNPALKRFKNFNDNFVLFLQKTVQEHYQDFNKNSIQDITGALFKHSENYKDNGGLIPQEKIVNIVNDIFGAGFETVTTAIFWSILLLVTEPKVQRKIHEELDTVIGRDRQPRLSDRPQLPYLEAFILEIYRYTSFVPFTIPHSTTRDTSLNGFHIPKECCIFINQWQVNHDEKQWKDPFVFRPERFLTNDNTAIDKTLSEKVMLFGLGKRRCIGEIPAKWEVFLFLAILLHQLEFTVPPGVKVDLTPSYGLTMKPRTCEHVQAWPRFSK
Protocol: as §1, §2, §3, §4

CYP2C19 = CYP2C19 inhibition, probe substrate cocktail in rat liver microsomes (S-mephenytoin 4-hydroxylation); type: in vitro ADME; conditions: pH 7.4, probe S-mephenytoin (4-hydroxylation), rat liver microsomes 0.5 mg/mL, garcinol 0.11-30 µM
Protocol: as §1, §2, §3, §4

P-gp [5] = assay: In-vivo P-gp pharmacokinetic study with digoxin; design: species or system SD rats; conditions: for Cl / Cmax / AUC(0-inf) / AUC(0-t) / half-life: SD rats, plasma; for Cmax / AUC(0-inf) / AUC(0-t) / half-life: rat, po; for Cmax: 0.5 mg/kg
Protocol: Effect of single dose garcinol on the P-gp was evaluated in-vivo, 18 rats were divided into three groups (Group I- Group III). Group I (Control group): rats were administered intragastrically with a single dose of vehicle (0.5% CMC-Na), and after 2 h of vehicle administration, digoxin (0.5 mg/kg) was given to the rats by intragastric administration. Group II: Rats received a single dose of garcinol (25 mg/kg) and digoxin (0.5 mg/kg) after 2 h. Group III: Verapamil (potent P-gp inhibitor) was administered to these rats followed by the administration of digoxin (results not shown). 0.2 mL of blood was collected at 0, 0.25, 0.5, 1, 2, 4, 6, 8, 24, and 48 h, plasma was separated immediately by centrifuging blood samples at 5000 rpm for 5 min and stored at −80 °C until analysis.
50 µL of plasma samples was crashed with ice-cold ACN containing internal standard (75 ng/mL) and vortexed gently and centrifuged at 10,000 rpm for 5 min. Supernatant was collected and submitted for LC-MS/MS analysis. LC-MS analysis was performed on LC-QTOF/MS (Agilent, 6540) and chromatographic separation was achieved on Waters X-Bridge C18 column (3.5 µm, 50 mm × 1.76 mm I.D) at 30 °C. Digoxin was analysed by a mobile phase consisting of solvent A (0.1% Formic acid in water) and solvent B (100% ACN) flow at a rate of 0.4 mL/min with a gradient program of 5 min. The program consisted of initial10 %B from 0.01 to 3.00 min, followed by 90% B from 3.01 to 4.00 min and again to 10% B from 4.01 to 5.00 min. [M+H]+ ions were identified and quantified for Digoxin and IS as 781.4369 and 515.2442, respectively. Optimized MS operating parameters were as follows: drying gas 10 L/min, gas temperature 325 °C, nebulizer at 40 psig, fragmentor voltage of 140 V and skimmer at 65 V.

CYP2C8 = CYP2C8 inhibition, probe substrate cocktail in rat liver microsomes (paclitaxel 6α-hydroxylation); type: in vitro ADME; conditions: for Inhibition of CYP2C8 (in words): rat liver microsomes, garcinol up to 30 µM
Protocol: as §1, §2, §3, §4

CYP2B6 [6] = assay: CYP2B6 inhibition, probe substrate cocktail in rat liver microsomes (bupropion hydroxylation); type: in vitro ADME; conditions: pH 7.4, probe bupropion (hydroxylation)
Protocol: as §1, §2, §3, §4

CYP3A4 [7] = assay: CYP3A4 inhibition, probe substrate cocktail in rat liver microsomes (midazolam 1-hydroxylation); type: in vitro ADME; conditions: pH 7.4, probe midazolam (1-hydroxylation), rat liver microsomes 0.5 mg/mL, garcinol 0.11-30 µM
Protocol: as §1, §2, §3, §4

CYP isoforms = assay: Time-dependent inhibition, IC50 shift assay in rat liver microsomes; type: in vitro ADME; conditions: 30 min pre-incubation with and without NADPH, all tested CYP isoforms
Protocol: Garcinol was pre-incubated with rat liver microsomes to determine the time-dependent inhibition potential of garcinol on various CYP isoforms individually. After 30 min of incubation with and without NADPH separately, metabolites of each CYP probe substrates were quantified using LC-MS/MS. IC50 values with and without NADPH pre-incubation were calculated using graph-pad prism and change in IC50 fold was calculated to evaluate the potential of garcinol to inhibit the CYP enzymes irreversibly. If the curve shifts to lower IC50 value after the pre- incubation in presence of NADPH, it is said to be a time-dependent inhibition. Concentrations of the test compound and other procedure were same as reversible inhibition study mentioned under Section 2.3.

[8] = rats, bupropion 10 mg/kg in probe mixture on day 8, with garcinol 25 mg/kg oral for 7 days
[9] = Sprague-Dawley, rat, po, 10 mg/kg
[10] = digoxin 0.5 mg/kg 2 h after single dose garcinol 25 mg/kg (group DGX + Garcinol)
[11] = Sprague-Dawley, digoxin 0.5 mg/kg intragastric 2 h after vehicle (group DGX)

OCc1ncc2n1-c1ccc(Cl)cc1C(c1ccccc1F)=NC2 [hydroxy midazolam, 1-hydroxy midazolam]
AUClast (CYP3A4 [1]): 737.45 ± 66.95 ng·h/mL
Cmax (CYP3A4 [1]): 482.85 ± 14.34 ng/mL
Tmax (CYP3A4 [1]): 0.25 ± 1.92 h
t1/2 (CYP3A4 [1]): 2.15 ± 0.36 h

C[C@H]1NC(C)(C)CO[C@]1(O)c1cccc(Cl)c1 [Hydroxy Bupropion, hydroxybupropion]
AUC0-∞ (CYP2B6 [2]; [8]): 6200.97 ± 106.97 ng·h/mL
AUClast (CYP2B6 [2]; [8]): 6057.86 ± 101.41 ng·h/mL
Cmax (CYP2B6 [2]; [8]): 632.02 ± 30.55 ng/mL
Tmax (CYP2B6 [2]; [8]): 1 ± 1.93 h
t1/2 (CYP2B6 [2]; [8]): 10.23 ± 0.04 h

Cc1ncc2n1-c1ccc(Cl)cc1C(c1ccccc1F)=NC2 [midazolam]
AUC(0-inf) (CYP3A4 [3]): 1140 ± 77.4 ng·h/mL
AUC(0-t) (CYP3A4 [3]): 1240 ± 18.6 ng·h/mL
Cmax (CYP3A4 [3]): 829 ± 15.7 ng/mL
Tmax (CYP3A4 [3]): 0.5 ± 1.23 h
half-life (CYP3A4 [3]): 3.12 ± 0.88 h

CC(NC(C)(C)C)C(=O)c1cccc(Cl)c1 (stereo not shown) [Bupropion, bupropion]
AUC(0-inf) (CYP2B6 [2]; [9]): 48800 ng·h/mL
AUC(0-t) (CYP2B6 [2]; [9]): 48200 ng·h/mL
Cmax (CYP2B6 [2]; [9]): 8100 ± 121 ng/mL
Tmax (CYP2B6 [2]; [9]): 2.5 ± 3.52 h

C=C(C)[C@@H](CC=C(C)C)C[C@@]12C[C@@H](CC=C(C)C)C(C)(C)[C@@](CC=C(C)C)(C(=O)C(C(=O)c3ccc(O)c(O)c3)=C1O)C2=O [Garcinol]
IC50 (CYP2E1): 19 µM
IC50 (CYP2D6): 9.5 µM
IC50 (CYP2C9): 8 µM
P-gp expression increase vs control group (P-gp [4]; rat brain tissue): 1.62 fold
P-gp expression increase vs control group (P-gp [4]; rat intestinal tissue): 1.07 fold
IC50 (CYP1A2): 7.6 µM
IC50 (CYP2C19): 16.4 µM
Effect on P-gp function in vivo (in words) (P-gp [5]; rats, single dose garcinol 25 mg/kg, digoxin as P-gp substrate): not an inhibitor of P-gp
IC50 (CYP2C8; pH 7.4, probe paclitaxel (6α-hydroxylation), rat liver microsomes 0.5 mg/mL, substrate paclitaxel, garcinol 0.11-30 µM): > 30 µM
Inhibition of CYP2C8 (in words) (CYP2C8): no apparent inhibition
Inhibition of CYP2C8 (in words) (CYP2C8; listed as garcinol): negligibly inhibited
IC50 (CYP2B6 [6]): 2.1 µM
IC50 (CYP3A4 [7]): 5.1 µM
Shift in IC50 (time dependent inhibition) (CYP isoforms): no significant shift
Shift in IC50 (time dependent inhibition) (CYP isoforms; listed as garcinol): did not show shift

C[C@H]1O[C@@H](O[C@H]2[C@@H](O)C[C@H](O[C@H]3[C@@H](O)C[C@H](O[C@H]4CC[C@@]5(C)[C@H](CC[C@@H]6[C@@H]5C[C@@H](O)[C@]5(C)[C@@H](C7=CC(=O)OC7)CC[C@]65O)C4)O[C@@H]3C)O[C@@H]2C)C[C@H](O)[C@@H]1O [DGX, digoxin]
Cl (P-gp [5]; [10]): 24.5793 ± 1.422 mL/min/kg
Cl (P-gp [5]; digoxin 0.5 mg/kg intragastric 2 h after vehicle (group DGX)): 16.401 ± 0.9478 mL/min/kg
Cmax (P-gp [5]; Sprague-Dawley, digoxin 0.5 mg/kg 2 h after single dose garcinol 25 mg/kg (group DGX + Garcinol)): 16.8 ± 4.22 ng/mL
Cmax (P-gp [5]; [11]): 26.1 ± 5.23 ng/mL
AUC(0-inf) (P-gp [5]; [11]): 254 ± 19.2 ng·h/mL
AUC(0-t) (P-gp [5]; [11]): 172 ± 12.3 ng·h/mL
half-life (P-gp [5]; [11]): 15.1 ± 0.35 h
AUC(0-inf) (P-gp [5]; [10]): 172 ± 12.6 ng·h/mL
AUC(0-t) (P-gp [5]; [10]): 151.4 ± 0.58 ng·h/mL
half-life (P-gp [5]; [10]): 7.32 ± 1.75 h
